Reference: ChEMBL document CHEMBL1126445, “Acetylcholine-releasing agents as cognition enhancers. Structure-activity relationships of pyridinyl pendant groups on selected core structures” (1992)

Species: Rattus norvegicus
Assay: Compound was evaluated for its ability to enhance the release of acetylcholine in vitro by using [3H]choline in rat brain slice superfusion system
Assay type: functional

O=C1c2cccc3cccc(c23)C1(Cc1ccccn1)Cc1ccccn1
Release: 40%

O=C1N(c2ccccc2)c2ccccc2C1(Cc1cccnc1)Cc1cccnc1
Release: 38%

O=C1CCc2ccccc2C1(Cc1ccccn1)Cc1ccccn1
Release: 25%

C=C1c2cccc3cccc(c23)C1(Cc1cccnc1)Cc1cccnc1
Release: 21%

c1ccc2c(c1)Oc1ccccc1C2(Cc1ccncc1)Cc1ccncc1
Release: 91%

OC1c2cccc3cccc(c23)C1(Cc1ccccn1)Cc1ccccn1 (stereo unspecified)
Release: 53%

O=C1N(c2ccccc2)c2ccccc2C1(Cc1ccccn1)Cc1ccccn1
Release: 22%

c1ccc(CC2(Cc3ccccn3)c3ccccc3Oc3ccccc32)nc1
Release: 24%

c1cncc(CC2(Cc3cccnc3)c3ccccc3Oc3ccccc32)c1
Release: 59%

OC1c2cccc3cccc(c23)C1(Cc1ccncc1)Cc1ccncc1 (stereo unspecified)
Release: 15%

O=C1c2cccc3cccc(c23)C1(Cc1cccnc1)Cc1cccnc1
Release: 7%

C=C1c2cccc3cccc(c23)C1(Cc1ccncc1)Cc1ccncc1
Release: 97%

OC1c2cccc3cccc(c23)C1(Cc1cccnc1)Cc1cccnc1 (stereo unspecified)
Release: 29%

C=C1c2cccc3cccc(c23)C1(Cc1ccccn1)Cc1ccccn1
Release: 25%

O=C1CCc2ccccc2C1(Cc1ccncc1)Cc1ccncc1
Release: 36%

O=C1CCc2ccccc2C1(Cc1cccnc1)Cc1cccnc1
Release: 11%

O=C1c2cccc3cccc(c23)C1(Cc1ccncc1)Cc1ccncc1
Release: 70%

c1ccc2c(c1)Sc1ccccc1C2(Cc1ccncc1)Cc1ccncc1
Release: 42%

c1cncc(CC2(Cc3cccnc3)c3ccccc3Sc3ccccc32)c1
Release: 79%

c1ccc(CC2(Cc3ccccn3)c3ccccc3Sc3ccccc32)nc1
Release: 47%

O=C1N(c2ccccc2)c2ccccc2C1(Cc1ccncc1)Cc1ccncc1 [LINOPIRDINE]
Release: 100%
